From patent US8846710B2, “Method of preferentially inducing the biosynthesis of interferon” (3M Innovative Properties Company, priority 2005, dated 2014)

What was measured:
[1] = system: tumor necrosis factor (α) (TNF-α); test: Cytokine induction in human cells: TNF-α secreted by PBMC into culture media (ORIGEN M-Series immunoassay); assay type: cell-based; design: key to Maximal Response (pg/mL) TNF / Maximal Response TNF: If any negative values result from background subtraction, the reading is reported as “*”, and is noted as not reliably detectable; conditions: for Maximal Response TNF / Maximal Response (pg/mL) TNF: median; for Maximal Response (pg/mL) TNF: maximal response in dose response curve; for Minimum Effective Concentration TNF: median where tested in more than one experiment
Outline: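 Human donor PBMC (final 2×10^6 cells/mL) were incubated 18 to 24 hours at 37° C with compound, usually 30-0.014 μM in 3-fold steps, ≤1% DMSO. Supernatant TNF-α was measured by ORIGEN immunoassay, background-subtracted and reference-adjusted; minimum effective concentration was the lowest concentration exceeding a fixed cytokine threshold.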

interferon (α) (IFN-α) = test: Cytokine induction in human cells: IFN-α secreted by PBMC into culture media (ELISA); assay type: cell-based; conditions: for Maximal Response IFN / Minimum Effective Concentration IFN: median where tested in more than one experiment; for Maximal Response (pg/mL) IFN: maximal response in dose response curve, median
Outline: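 Human donor PBMC, 2×10^6 cells/mL final in RPMI complete, treated 18–24 h at 37 °C, 5% CO2 with 3-fold dilutions (usually 30-0.014 μM), DMSO ≤1%. Supernatant IFN-α by multi-subtype sandwich ELISA, background-subtracted and reference-adjusted; minimum effective concentration = lowest concentration exceeding usually 20 pg/mL.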

[2] = Table 11, human PBMC, * = TNF below experimental background of 40 pg/mL
[3] = Table 7, background-subtracted, reference-adjusted
[4] = Table 12, human PBMC, * = below the experimental background of 40 pg/mL
[5] = Table 8, background-subtracted, reference-adjusted
[6] = Table 10, * = below experimental background level

SMILES: Cc1ccc(S(=O)(=O)NCCCn2c(CCO)nc3c(N)nc4ccccc4c32)cc1 [Example 1, N-{3-[4-Amino-2-(2-hydroxyethyl)-1H-imidazo[4,5-c]quinolin-1-yl]propyl}-4-methylbenzenesulfonamide]
- Maximal Response TNF [1, 2]: 143 pg/mL
- Maximal Response IFN (interferon (α) (IFN-α); Table 11, human PBMC): 1072 pg/mL

SMILES: CCOCc1nc2c(N)nc3ccccc3c2n1CC(C)(C)NS(C)(=O)=O [Analog 4, N-[2-(4-Amino-2-ethoxymethyl-1H-imidazo[4,5-c]quinolin-1-yl)-1,1-dimethylethyl]methanesulfonamide]
- Maximal Response (pg/mL) TNF [1, 3]: 10125 pg/mL
- Maximal Response TNF [1, 2]: 10665 pg/mL
- Maximal Response (pg/mL) IFN (interferon (α) (IFN-α); [3]): 889 pg/mL
- Maximal Response IFN (interferon (α) (IFN-α); Table 11, human PBMC): 1138 pg/mL

SMILES: Nc1nc2ccccc2c2c1nc(CCO)n2CCCCNC(=O)c1cnc2ccccc2n1 [Example 117]
- Minimum Effective Concentration TNF ([1]; Table 11, human PBMC): 3.33 µM
- Maximal Response TNF [1, 2]: 1938 pg/mL
- Maximal Response IFN (interferon (α) (IFN-α); Table 11, human PBMC): 5520 pg/mL
- Minimum Effective Concentration IFN (interferon (α) (IFN-α); Table 11, human PBMC): 0.37 µM

SMILES: CCOCc1nc2c(N)nc3cccnc3c2n1CC(C)C [Analog 132, 2-ethoxymethyl-1-(2-methylpropyl)-1H-imidazo[4,5-c][1,5]naphthyridin-4-amine]
- Maximal Response TNF [1, 4]: 3160 pg/mL
- Maximal Response IFN (interferon (α) (IFN-α); Table 12, human PBMC): 1524 pg/mL

SMILES: COCCc1nc2c(N)nc3ccccc3c2n1CCCN [Analog 86]
- Minimum Effective Concentration TNF ([1]; Table 11, human PBMC): 1.11 µM
- Maximal Response TNF [1, 2]: 1674 pg/mL
- Maximal Response IFN (interferon (α) (IFN-α); Table 11, human PBMC): 3433 pg/mL
- Minimum Effective Concentration IFN (interferon (α) (IFN-α); Table 11, human PBMC): 0.04 µM

SMILES: COCCc1nc2c(N)nc3ccccc3c2n1CCCCNC(=O)c1cnc2ccccc2n1 [Analog 116]
- Minimum Effective Concentration TNF ([1]; Table 11, human PBMC): 0.04 µM
- Maximal Response TNF [1, 2]: 7261 pg/mL
- Maximal Response IFN (interferon (α) (IFN-α); Table 11, human PBMC): 1129 pg/mL
- Minimum Effective Concentration IFN (interferon (α) (IFN-α); Table 11, human PBMC): 0.014 µM

SMILES: CCCCNC(=O)NCCCn1c(COCC)nc2c(N)nc3ccccc3c21 [Analog 97]
- Minimum Effective Concentration TNF ([1]; Table 11, human PBMC): 3.33 µM
- Maximal Response TNF [1, 2]: 963 pg/mL
- Maximal Response IFN (interferon (α) (IFN-α); Table 11, human PBMC): 827 pg/mL
- Minimum Effective Concentration IFN (interferon (α) (IFN-α); Table 11, human PBMC): 0.37 µM

SMILES: CC(C)NC(=O)NCCCn1c(CCO)nc2c(N)nc3ccccc3c21 [Example 99]
- Minimum Effective Concentration TNF ([1]; Table 11, human PBMC): >30 µM
- Maximal Response TNF [1, 2]: *
- Maximal Response IFN (interferon (α) (IFN-α); Table 11, human PBMC): 21829 pg/mL
- Minimum Effective Concentration IFN (interferon (α) (IFN-α); Table 11, human PBMC): 0.37 µM

SMILES: COCCc1nc2c(N)nc3ccccc3c2n1CCCCCCCCNC(=O)c1ccccc1 [Analog 119]
- Minimum Effective Concentration TNF ([1]; Table 11, human PBMC): 0.014 µM
- Maximal Response TNF [1, 2]: 1995 pg/mL
- Maximal Response IFN (interferon (α) (IFN-α); Table 11, human PBMC): 1584 pg/mL
- Minimum Effective Concentration IFN (interferon (α) (IFN-α); Table 11, human PBMC): 0.014 µM

SMILES: CCOCc1nc2c(N)nc3cccnc3c2n1CC(C)(C)O [Analog 6, 1-(4-amino-2-ethoxymethyl-1H-imidazo[4,5-c][1,5]naphthyridin-1-yl)-2-methylpropan-2-ol]
- Maximal Response (pg/mL) TNF [1, 5]: 4921 pg/mL
- Maximal Response TNF [1, 4]: 7275 pg/mL
- Maximal Response (pg/mL) IFN (interferon (α) (IFN-α); [5]): 658 pg/mL
- Maximal Response IFN (interferon (α) (IFN-α); Table 12, human PBMC): 1674 pg/mL

SMILES: CC(C)(F)Cn1c(CO)nc2c(N)nc3cccnc3c21 [Example 551, [4-Amino-1-(2-fluoro-2-methylpropyl)-1H-imidazo[4,5-c][1,5]naphthyridin-2-yl]methanol]
- Maximal Response TNF [1, 4]: 1922 pg/mL
- Maximal Response IFN (interferon (α) (IFN-α); Table 12, human PBMC): 1833 pg/mL

SMILES: CN(CCOCCn1c(CCO)nc2c(N)nc3ccccc3c21)C(=O)C1CCCCC1 [Example 135]
- Minimum Effective Concentration TNF ([1]; Table 11, human PBMC): 30 µM
- Maximal Response TNF [1, 2]: 146 pg/mL
- Maximal Response IFN (interferon (α) (IFN-α); Table 11, human PBMC): 2464 pg/mL
- Minimum Effective Concentration IFN (interferon (α) (IFN-α); Table 11, human PBMC): 3.33 µM

SMILES: CCOCc1nc2c(N)nc3cc(-c4cncc(CO)c4)ccc3c2n1CC(C)(C)O [Analog 14]
- minimal effective concentration ([1]; Table 10, human PBMC, lowest tested concentration inducing TNF-α over usually 40 pg/mL, median where more than one experiment, read-out: Minimum Effective Concentration (μM) TNF): 0.12 µM
- Maximal Response (pg/mL) TNF [1, 6]: 18284 pg/mL
- minimal effective concentration (interferon (α) (IFN-α); Table 10, human PBMC, lowest tested concentration inducing IFN-α over usually 20 pg/mL, median where more than one experiment, read-out: Minimum Effective Concentration (μM) IFN): 0.014 µM
- Maximal Response (pg/mL) IFN (interferon (α) (IFN-α); [6]): 6308 pg/mL

SMILES: Cc1nc2c(N)nc3ccccc3c2n1CCCN [Analog 84]
- Minimum Effective Concentration TNF ([1]; Table 11, human PBMC): >30 µM
- Maximal Response TNF [1, 2]: *
- Maximal Response IFN (interferon (α) (IFN-α); Table 11, human PBMC): 421 pg/mL
- Minimum Effective Concentration IFN (interferon (α) (IFN-α); Table 11, human PBMC): 3.33 µM

SMILES: COCCc1nc2c(N)nc3ccccc3c2n1CCCCCS(C)(=O)=O [Analog 76]
- Minimum Effective Concentration TNF ([1]; Table 11, human PBMC): 1.11 µM
- Maximal Response TNF [1, 2]: 6169 pg/mL
- Maximal Response IFN (interferon (α) (IFN-α); Table 11, human PBMC): 2695 pg/mL
- Minimum Effective Concentration IFN (interferon (α) (IFN-α); Table 11, human PBMC): 0.014 µM
